The test is described as follows: Antioxidant assay: DPPH radical-scavenging activity. Conditions: read-out: Antioxidant activity IC50 (DPPH); DPPH method.
The IC50 is the concentration at which inhibition is half-maximal. As to `C[C@@H]1O[C@@H](O[C@H]2[C@H](Oc3c(-c4ccc(O)cc4)oc4cc(O)cc(O)c4c3=O)O[C@H](CO[C@@H]3O[C@H](CO)[C@@H](O)[C@H](O)[C@H]3O)[C@@H](O)[C@@H]2O)[C@H](O)[C@H](O)[C@H]1O` [Compound 2, kaempferol-3-O-β-D-glucopyranosyl-(1 → 6)-[α-L-rhamnopyranosyl-(1 → 2)]-β-D-glucopyranoside], the IC50 came to 170 ± 5.2 µM.

For `O=c1c(O)c(-c2ccc(O)cc2)oc2cc(O[C@@H]3O[C@H](CO)[C@@H](O)[C@H](O)[C@H]3O)cc(O)c12` [Compound 7, kaempferol-7-O-β-D-glucopyranoside], the IC50 was 77.6 ± 2.4 µM.

Turning to `O=c1c(O[C@@H]2O[C@H](CO)[C@@H](O)[C@H](O)[C@H]2O)c(-c2ccc(O)cc2)oc2cc(O[C@@H]3O[C@H](CO)[C@@H](O)[C@H](O)[C@H]3O)cc(O)c12` [Compound 8, kaempferol-3,7-di-O-β-D-glucopyranoside], the IC50 amounted to 407 ± 22.1 µM.

As to `C[C@@H]1O[C@@H](OC[C@H]2O[C@@H](Oc3c(-c4ccc(O)cc4)oc4cc(O)cc(O)c4c3=O)[C@H](O[C@@H]3O[C@H](CO)[C@@H](O)[C@H](O)[C@H]3O)[C@@H](O)[C@@H]2O)[C@H](O)[C@H](O)[C@H]1O` [Compound 4, kaempferol-3-O-β-D-glucopyranosyl-(1 → 2)-[α-L-rhamnopyranosyl-(1 → 6)]-β-D-glucopyranoside], the IC50 is 257 ± 19.9 µM.

With `O=C1O[C@H]([C@@H](O)CO)C(O)=C1O` [V c, L-ascorbic acid, reference compound], the IC50 stood at 33.9 ± 1.1 µM.

With `O=c1c(O)c(-c2ccc(O)cc2)oc2cc(O)cc(O)c12` [Compound 5, kaempferol], the IC50 is 36.3 ± 1.1 µM.

For `O=c1c(O[C@@H]2O[C@H](CO)[C@@H](O)[C@H](O)[C@H]2O)c(-c2ccc(O)cc2)oc2cc(O)cc(O)c12` [Compound 6, astragalin], the IC50 was found to be 100 ± 3.2 µM.

On to `C[C@@H]1O[C@@H](OC[C@H]2O[C@@H](O[C@H]3[C@H](Oc4c(-c5ccc(O)cc5)oc5cc(O)cc(O)c5c4=O)O[C@H](CO)[C@@H](O)[C@@H]3O)[C@H](O)[C@@H](O)[C@@H]2O)[C@H](O)[C@H](O)[C@H]1O` [Compound 10, kaempferol-3-O-α-L-rhamnopyranosyl-(1 → 6)-β-D-glucopyranosyl-(1 → 2)-β-D-glucopyranoside], for which the IC50 was determined as 209 ± 7.3 µM.

For the compound kaempferol-3-O-rutinoside [Compound 11], the IC50 turned out to be 129 ± 9.2 µM.

For the origin of these results see PMC9080520 (RSC Advances, 2018).
